Data reported in US20110015191A1, “ORGANIC COMPOUNDS” (SANDOZ AG, priority 2007, published 2011).
≈ marks a conversion by molar mass, not a printed value.

Tests used:
[1] = Conversion of the methanol solvate on drying; assay type: physicochemical
Source text: In another embodiment the invention relates to a novel methanol solvate of Aprepitant. The methanol solvate is useful for the purification of Aprepitant.

[2] = cited from earlier work
[3] = heated to 230° C. under a nitrogen atmosphere; cited from earlier work

| SMILES | conversion of solid form on drying [1] | solubility in a methanol/water mixture (2:1) [2] | conversion of polymorphic form on heating [3] |
| --- | --- | --- | --- |
| CO.C[C@@H](O[C@H]1OCCN(Cc2nc(=O)[nH][nH]2)[C@H]1c1ccc(F)cc1)c1cc(C(F)(F)F)cc(C(F)(F)F)c1 [methanol solvate, Methanol solvate of 2-(R)-(1-(R)-(3,5)-bis(trifluoromethyl)-phenyl)ethoxy)-3-(S)-(4-fluoro)phenyl-4-(3-(5-oxo-1H,4H-1,2,4-triazolo)methylmorpholine] | converts to form I of Aprepitant on drying | – | – |
| C[C@@H](O[C@H]1OCCN(Cc2nc(=O)[nH][nH]2)[C@H]1c1ccc(F)cc1)c1cc(C(F)(F)F)cc(C(F)(F)F)c1 [Form II of Aprepitant, 2-(R)-(1-(R)-(3,5)-bis(trifluoromethyl)-phenyl)ethoxy)-3-(S)-(4-fluoro)phenyl-4-(3-(5-oxo-1H,4H-1,2,4-triazolo)methylmorpholine] | – | about 1.3±0.2 mg/ml | converts to form I |
| C[C@@H](O[C@H]1OCCN(Cc2nc(=O)[nH][nH]2)[C@H]1c1ccc(F)cc1)c1cc(C(F)(F)F)cc(C(F)(F)F)c1 [form I, 2-(R)-(1-(R)-(3,5)-bis(trifluoromethyl)-phenyl)ethoxy)-3-(S)-(4-fluoro)phenyl-4-(3-(5-oxo-1H,4H-1,2,4-triazolo)methylmorpholine] | – | 900 ± 100 µg/mL (≈ 1680 µM) | – |
